Results: ChEMBL document CHEMBL1201862, “PubChem BioAssay data set” (2004)
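Values below derive from 48-hour exposures of cells grown in 96-well plates, with endpoints linearly interpolated between the two concentrations bracketing the appropriate inhibition level. GI50: concentration for 50% inhibition of growth.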 Activity calls are given as the source filed them. Rule as the data show it: active = GI50 up to about 1.1 µM and inactive = higher.

Legend:
Experiment in all cases: DTP human tumour cell line panel, 48 h
[1] = tested on: DU-145
[2] = tested on: SNB-19
[3] = tested on: UO-31
[4] = tested on: MDA-MB-435
[5] = tested on: HL-60
[6] = tested on: U-251
[7] = tested on: K562
[8] = tested on: SK-MEL-28
[9] = tested on: NCI/ADR-RES
[10] = tested on: HCC 2998
[11] = tested on: A549
[12] = tested on: IGROV-1
[13] = tested on: UACC-257
[14] = tested on: CAKI-1
[15] = tested on: Hs-578T
[16] = tested on: OVCAR-3
[17] = tested on: A498
[18] = tested on: MDA-MB-231
[19] = tested on: T47D
[20] = tested on: HCT-116
[21] = tested on: COLO 205
[22] = tested on: HT-29
[23] = tested on: SR
[24] = tested on: SK-OV-3
[25] = tested on: OVCAR-5
[26] = tested on: SF-268
[27] = tested on: KM12
[28] = tested on: OVCAR-4
[29] = tested on: BT-549
[30] = tested on: RXF 393
[31] = tested on: PC-3
[32] = tested on: MCF7
[33] = tested on: OVCAR-8
[34] = tested on: SN12C
[35] = tested on: 786-0
[36] = tested on: NCI-H460
[37] = tested on: EKVX
[38] = tested on: MOLT-4
[39] = tested on: RPMI-8226
[40] = tested on: M14
[41] = tested on: HOP-92
[42] = tested on: MDA-N
[43] = tested on: HCT-15
[44] = tested on: ACHN
[45] = tested on: UACC-62
[46] = tested on: HOP-62
[47] = tested on: SK-MEL-2
[48] = tested on: CCRF-CEM
[49] = tested on: NCI-H23
[50] = tested on: SNB-75
[51] = tested on: TK-10
[52] = tested on: SF-539
[53] = tested on: SF-295
[54] = tested on: SW-620
[55] = tested on: SK-MEL-5
[56] = tested on: NCI-H226
[57] = tested on: NCI-H522
[58] = tested on: LOX IMVI
[59] = tested on: Malme-3M

**Q.** For `Brc1cccc(/C=C/CN2CCN(CCOC(c3ccccc3)c3ccccc3)CC2)c1`, which GI50 [1] is on record?
**A.** 13.6 µM (inactive)

**Q.** And the GI50 [2]?
**A.** 16.7 µM (inactive)

**Q.** And the GI50 [3]?
**A.** 13.1 µM (inactive)

**Q.** What about the GI50 [4] of the same compound?
**A.** 12.6 µM (inactive)

**Q.** And the GI50 [5]?
**A.** 7.45 µM (inactive)

**Q.** What about the GI50 [6] of the same compound?
**A.** 13.6 µM (inactive)

**Q.** And the GI50 [7]?
**A.** 7.69 µM (inactive)

**Q.** And the GI50 [8]?
**A.** 17.8 µM (inactive)

**Q.** And the GI50 [9]?
**A.** 14.7 µM (inactive)

**Q.** What about the GI50 [10] of the same compound?
**A.** 8.53 µM (inactive)

**Q.** And the GI50 [11]?
**A.** 15.5 µM (inactive)

**Q.** What about the GI50 [12] of the same compound?
**A.** 15.9 µM (inactive)

**Q.** What about the GI50 [13] of the same compound?
**A.** 17.9 µM (inactive)

**Q.** And the GI50 [14]?
**A.** 15.9 µM (inactive)

**Q.** What about the GI50 [15] of the same compound?
**A.** 22.1 µM (inactive)

**Q.** What about the GI50 [16] of the same compound?
**A.** 15.4 µM (inactive)

**Q.** What about the GI50 [17] of the same compound?
**A.** 17.5 µM (inactive)

**Q.** What about the GI50 [18] of the same compound?
**A.** 13.9 µM (inactive)

**Q.** And the GI50 [19]?
**A.** 3.73 µM (inactive)

**Q.** And the GI50 [20]?
**A.** 13.7 µM (inactive)

**Q.** What about the GI50 [21] of the same compound?
**A.** 14.2 µM (inactive)

**Q.** And the GI50 [22]?
**A.** 6.22 µM (inactive)

**Q.** What about the GI50 [23] of the same compound?
**A.** 9.02 µM (inactive)

**Q.** What about the GI50 [24] of the same compound?
**A.** 17.6 µM (inactive)

**Q.** What about the GI50 [25] of the same compound?
**A.** 16.2 µM (inactive)

**Q.** What about the GI50 [26] of the same compound?
**A.** 16.4 µM (inactive)

**Q.** And the GI50 [27]?
**A.** 14.8 µM (inactive)

**Q.** What about the GI50 [28] of the same compound?
**A.** 11.7 µM (inactive)

**Q.** And the GI50 [29]?
**A.** 16.5 µM (inactive)

**Q.** And the GI50 [30]?
**A.** 11.6 µM (inactive)

**Q.** And the GI50 [31]?
**A.** 13.2 µM (inactive)

**Q.** And the GI50 [32]?
**A.** 14.5 µM (inactive)

**Q.** And the GI50 [33]?
**A.** 16.1 µM (inactive)

**Q.** What about the GI50 [34] of the same compound?
**A.** 15 µM (inactive)

**Q.** And the GI50 [35]?
**A.** 15.7 µM (inactive)

**Q.** What about the GI50 [36] of the same compound?
**A.** 13.3 µM (inactive)

**Q.** What about the GI50 [37] of the same compound?
**A.** 17.5 µM (inactive)

**Q.** And the GI50 [38]?
**A.** 8.47 µM (inactive)

**Q.** What about the GI50 [39] of the same compound?
**A.** 4.08 µM (inactive)

**Q.** What about the GI50 [40] of the same compound?
**A.** 13.2 µM (inactive)

**Q.** And the GI50 [41]?
**A.** 6 µM (inactive)

**Q.** What about the GI50 [42] of the same compound?
**A.** 16.7 µM (inactive)

**Q.** What about the GI50 [43] of the same compound?
**A.** 15.6 µM

**Q.** What about the GI50 [44] of the same compound?
**A.** 17.5 µM (inactive)

**Q.** And the GI50 [45]?
**A.** 17.4 µM (inactive)

**Q.** What about the GI50 [46] of the same compound?
**A.** 15.9 µM (inactive)

**Q.** And the GI50 [47]?
**A.** 17.8 µM (inactive)

**Q.** What about the GI50 [48] of the same compound?
**A.** 11.1 µM (inactive)

**Q.** And the GI50 [49]?
**A.** 16.5 µM (inactive)

**Q.** And the GI50 [50]?
**A.** 6.08 µM (inactive)

**Q.** And the GI50 [51]?
**A.** 19.3 µM (inactive)

**Q.** What about the GI50 [52] of the same compound?
**A.** 15.7 µM (inactive)

**Q.** What about the GI50 [53] of the same compound?
**A.** 17.6 µM (inactive)

**Q.** What about the GI50 [54] of the same compound?
**A.** 17.8 µM (inactive)

**Q.** And the GI50 [55]?
**A.** 15.1 µM (inactive)

**Q.** What about the GI50 [56] of the same compound?
**A.** 19 µM (inactive)

**Q.** And the GI50 [57]?
**A.** 14.4 µM (inactive)

**Q.** And the GI50 [58]?
**A.** 14.5 µM (inactive)

**Q.** And the GI50 [59]?
**A.** 16.1 µM (inactive)

**Q.** What does the source list for `CCCCOCCOC1=C(Cl)C(=O)c2c(O)ccc(O)c2C1=O`?
**A.** GI50 [1]: 1.66 µM (inactive); GI50 [2]: 1.36 µM (inactive); GI50 [3]: 0.748 µM (active); GI50 [4]: 0.325 µM (active); GI50 [5]: 0.0347 µM (active); GI50 [6]: 1.32 µM (inactive); GI50 [7]: 0.0356 µM (active); GI50 [8]: 0.562 µM (active); GI50 [9]: 0.614 µM (active); GI50 [10]: 2.5 µM (inactive); GI50 [11]: 2.11 µM (inactive); GI50 [12]: 0.855 µM (active); GI50 [13]: 0.429 µM (active); GI50 [14]: 0.407 µM (active); GI50 [15]: 2.49 µM (inactive); GI50 [16]: 0.547 µM (active); GI50 [17]: 1.82 µM (inactive); GI50 [18]: 0.493 µM (active); GI50 [19]: 0.532 µM (active); GI50 [20]: 0.261 µM (active); GI50 [21]: 0.194 µM (active); GI50 [22]: 0.689 µM (active); GI50 [23]: 0.0995 µM (active); GI50 [24]: 2.98 µM (inactive); GI50 [25]: 1.37 µM (inactive); GI50 [26]: 1.6 µM (inactive); GI50 [27]: 1.83 µM (inactive); GI50 [28]: 0.822 µM (active); GI50 [29]: 0.175 µM (active); GI50 [30]: 0.227 µM (active); GI50 [31]: 1.6 µM (inactive); GI50 [32]: 0.285 µM (active); GI50 [33]: 0.347 µM (active); GI50 [34]: 0.465 µM (active); GI50 [35]: 0.229 µM (active); GI50 [36]: 1.49 µM (inactive); GI50 [37]: 2.94 µM (inactive); GI50 [38]: 0.051 µM (active); GI50 [39]: 0.255 µM (active); GI50 [40]: 0.217 µM (active); GI50 [41]: 0.288 µM (active); GI50 [42]: 0.272 µM (active); GI50 [43]: 0.151 µM; GI50 [44]: 0.321 µM (active); GI50 [45]: 1.12 µM (active); GI50 [46]: 1.17 µM (inactive); GI50 [47]: 1.37 µM (inactive); GI50 [48]: 0.0274 µM (active); GI50 [49]: 0.42 µM (active); GI50 [50]: 0.687 µM (active); GI50 [51]: 0.578 µM (active); GI50 [52]: 0.993 µM (active); GI50 [53]: 1.53 µM (inactive); GI50 [54]: 0.188 µM (active); GI50 [55]: 0.733 µM (active); GI50 [56]: 2.26 µM (inactive); GI50 [57]: 0.392 µM (active); GI50 [58]: 0.439 µM (active); GI50 [59]: 0.259 µM (active)
